Measurements reported in patent US20030176314A1, “Compounds for the treatment of pain” (priority 2001, published 2003).
pEC50, pKi: −log10 of the molar value. Like-named read-outs stand apart in the source and are kept apart here.

Key:
rat NPFF1 receptor [1] = target: T1, rat NPFF1 receptor (Rattus norvegicus, UniProt Q9EP86); assay: Competition binding at cloned rat NPFF1 receptor ([125I]1DMeNPFF displacement)
T1 construct: expressed in transfected cells; host or cells: not given
Description: Transfected cells from culture flasks are scraped into 5 ml of 20 mM Tris-HCl, 5 mM EDTA, pH 7.5, and lysed by sonication. The cell lysates are centrifuged at 1000 rpm for 5 min. at 4° C., and the supernatant is centrifuged at 30,000×g for 20 min. at 4° C. […] Optimal membrane suspension dilutions, defined as the protein concentration required to bind less than 10% of the added radioligand, are […], unlabeled compounds, and binding buffer to a final volume of 250 μl. […]
(§1) Competition assay: 50 pM radioligand, 10-12 points. Binding reaction mixtures are incubated for 2 hr at 25° C., and the reaction stopped by filtration through a double layer of GF filters treated with 0.1% polyethyleneimine, using a cell harvester. Wash buffer: 50 mM Tris-HCl, 0.1% BSA. Radioactivity may be measured by scintillation counting and data are analyzed by a computerized non-linear regression program. Non-specific binding is defined as the amount of radioactivity remaining after incubation of membrane protein in the presence of 1 μM final concentration […]. Protein concentration may be measured by the Bradford method using Bio-Rad Reagent, with bovine serum albumin as a standard.

rat NPFF2 receptor [2] = target: T2, rat NPFF2 receptor (Rattus norvegicus, UniProt Q9EQD2); assay: Functional assay (agonist potency, intrinsic activity) at cloned rat NPFF2 receptor; type: cell-based; details: for rNPFF2 IA: Table 7, intrinsic activity; for Functional Activity rNPFF2 I.A. %: percent of maximum response elicited by neuropeptide FF; for classification as agonist or antagonist at the NPFF2 receptor: agonist: IA>15%, antagonist: Ki≦1.2 mM and IA≦15% at the rat cloned NPFF receptors
T2 construct: The full-length NPFF2 was amplified from rat spinal cord cDNA; expressed in transfected cells; host or cells: not given

rat NPFF1 receptor [3] = target: T1, rat NPFF1 receptor; assay: Functional assay (agonist potency, intrinsic activity) at cloned rat NPFF1 receptor; type: cell-based; details: for rNPFF1 IA: Table 7, intrinsic activity; for Functional Activity rNPFF1 I.A. %: percent of maximum response elicited by neuropeptide FF; for classification as agonist or antagonist at the NPFF1 receptor: agonist: IA>15%, antagonist: Ki≦1.2 mM and IA≦15% at the rat cloned NPFF receptors
rat NPFF2 receptor [4] = target: T2, rat NPFF2 receptor; assay: Competition binding at cloned rat NPFF2 receptor ([125I]1DMeNPFF displacement)
Description: Transfected cells from culture flasks are scraped into 5 ml of 20 mM Tris-HCl, 5 mM EDTA, pH 7.5, and lysed by sonication. The cell lysates are centrifuged at 1000 rpm for 5 min. at 4° C., and the supernatant is centrifuged at 30,000×g for 20 min. at 4° C. […] Optimal membrane suspension dilutions, defined as the protein concentration required to bind less than 10% of the added radioligand, […], unlabeled compounds, and binding buffer to a final volume of 250 μl. In equilibrium saturation binding assays membrane preparations are incubated in the presence of increasing concentrations of [^3H]-labeled compound.
as §1

[5] = Table 3, recombinant rat NPFF1, read-out: rNPFF1 Ki
[6] = Table 7, agonist potency, read-out: rNPFF2 EC50
[7] = Table 7, agonist potency, read-out: rNPFF1 EC50
[8] = Table 3, recombinant rat NPFF2, read-out: rNPFF2 Ki
[9] = Table 4, read-out: Ki Values rNPFF1
[10] = Table 4, read-out: Functional Activity rNPFF2 EC50
[11] = Table 4, read-out: Functional Activity rNPFF1 EC50
[12] = Table 4, read-out: Ki Values rNPFF2
[13] = Table 5, D-Arg- or D-Phe-containing compounds, read-out: Ki Values rNPFF1
[14] = Table 5, read-out: Functional Activity rNPFF2 EC50
[15] = Table 5, read-out: Functional Activity rNPFF1 EC50
[16] = Table 5, D-Arg- or D-Phe-containing compounds, read-out: Ki Values rNPFF2

T1 sequence (Q9EP86 whole entry): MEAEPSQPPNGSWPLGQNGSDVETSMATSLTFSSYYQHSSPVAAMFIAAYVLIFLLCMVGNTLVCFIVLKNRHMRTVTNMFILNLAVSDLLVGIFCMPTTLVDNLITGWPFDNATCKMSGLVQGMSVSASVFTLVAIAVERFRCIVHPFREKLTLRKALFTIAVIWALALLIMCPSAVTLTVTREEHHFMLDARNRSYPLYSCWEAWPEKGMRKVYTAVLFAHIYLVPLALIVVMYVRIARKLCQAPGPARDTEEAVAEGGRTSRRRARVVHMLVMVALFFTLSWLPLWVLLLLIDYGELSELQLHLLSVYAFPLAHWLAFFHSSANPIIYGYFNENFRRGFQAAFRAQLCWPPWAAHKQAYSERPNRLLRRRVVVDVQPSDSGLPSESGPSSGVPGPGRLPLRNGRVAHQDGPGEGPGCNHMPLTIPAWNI
T2 sequence (Q9EQD2 whole entry): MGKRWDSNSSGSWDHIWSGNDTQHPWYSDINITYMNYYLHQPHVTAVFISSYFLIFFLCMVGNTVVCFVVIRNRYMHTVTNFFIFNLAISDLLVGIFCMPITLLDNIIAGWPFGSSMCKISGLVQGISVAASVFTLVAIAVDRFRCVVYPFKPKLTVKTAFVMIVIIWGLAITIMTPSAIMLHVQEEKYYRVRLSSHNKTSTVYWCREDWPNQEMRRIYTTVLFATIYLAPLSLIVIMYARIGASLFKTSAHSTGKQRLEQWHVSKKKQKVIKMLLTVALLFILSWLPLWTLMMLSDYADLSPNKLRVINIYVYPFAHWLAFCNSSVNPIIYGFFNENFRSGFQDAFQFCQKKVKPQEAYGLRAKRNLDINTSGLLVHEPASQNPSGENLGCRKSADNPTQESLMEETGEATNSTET

## Cc1nc(NC(=N)N)nc2ccc(OCCCCCOc3ccccc3)cc12 [Compound 1005A, N-4-methyl-6-[(5-phenoxypentyl)oxy]-2-quinazolinylguanidine]
Rat NPFF1 receptor [1]; [5]
  pKi: 6.50
Rat NPFF2 receptor [2]; [6]
  pEC50: 5.50
Rat NPFF2 receptor [2]
  rNPFF2 IA: 21% NPFF
Rat NPFF1 receptor [3]; [7]
  pEC50: < 5.00
Rat NPFF1 receptor [3]
  rNPFF1 IA: Inactive
Rat NPFF2 receptor [4]; [8]
  pKi: 5.67

## COc1ccc(Br)cc1S(=O)(=O)N[C@@H](CCCNC(=N)N)C(=O)N[C@@H](Cc1ccccc1)C(N)=O [Compound 1025B]
Rat NPFF1 receptor [1]; [9]
  pKi: 6.48
Rat NPFF2 receptor [2]; Table 4
  Functional Activity rNPFF2 I.A. %: 33%
Rat NPFF2 receptor [2]; [10]
  pEC50: < 5.50
Rat NPFF1 receptor [3]; Table 4
  Functional Activity rNPFF1 I.A. %: 78%
Rat NPFF1 receptor [3]; [11]
  pEC50: 6.22
Rat NPFF2 receptor [4]; [12]
  pKi: 5.38

## CCc1nc(NC(=N)N)nc2ccc(C)cc12 [Compound 1027A]
Rat NPFF1 receptor [1]; [5]
  pKi: 6.22
Rat NPFF2 receptor [2]; [6]
  pEC50: < 5.00
Rat NPFF2 receptor [2]
  rNPFF2 IA: 31% NPFF
Rat NPFF1 receptor [3]; [7]
  pEC50: < 5.00
Rat NPFF1 receptor [3]
  rNPFF1 IA: Inactive
Rat NPFF2 receptor [4]; [8]
  pKi: 5.50

## N#Cc1ccccc1S(=O)(=O)N[C@@H](CCCNC(=N)N)C(=O)N[C@@H](Cc1ccccc1)C(N)=O [Compound 1027B]
Rat NPFF2 receptor [2]; Table 4
  Functional Activity rNPFF2 I.A. %: 48%
Rat NPFF1 receptor [3]; Table 4
  Functional Activity rNPFF1 I.A. %: 52%

## N=C(N)NCCC[C@@H](NS(=O)(=O)c1ccc(F)cc1)C(=O)N[C@@H](Cc1ccccc1)C(N)=O [Compound 1028B]
Rat NPFF2 receptor [2]; Table 5
  Functional Activity rNPFF2 I.A. %: 62%
Rat NPFF1 receptor [3]; Table 5
  Functional Activity rNPFF1 I.A. %: 46%

## Cc1nc(NC(=N)N)nc2ccc(C3CCCCC3)cc12 [Compound 1029A, N-(6-cyclohexyl-4-methyl-2-quinazolinyl)guanidine]
Rat NPFF2 receptor [2]
  rNPFF2 IA: 31% NPFF
Rat NPFF1 receptor [3]
  rNPFF1 IA: 28% NPFF

## N=C(N)NCCC[C@H](NS(=O)(=O)c1ccc2ccccc2c1)C(=O)N[C@H](Cc1ccccc1)C(N)=O [Compound 1029B]
Rat NPFF1 receptor [1]; [13]
  pKi: 6.40
Rat NPFF2 receptor [2]; Table 5
  Functional Activity rNPFF2 I.A. %: 86%
Rat NPFF2 receptor [2]; [14]
  pEC50: < 5.50
Rat NPFF1 receptor [3]; Table 5
  Functional Activity rNPFF1 I.A. %: 30%
Rat NPFF1 receptor [3]; [15]
  pEC50: 6.32
Rat NPFF2 receptor [4]; [16]
  pKi: 5.57

## Cc1nc(NC(=N)N)nc2ccc(Oc3ccccc3)cc12 [Compound 1032A, N-(4-methyl-6-phenoxy-2-quinazolinyl)guanidine]
Rat NPFF2 receptor [2]
  rNPFF2 IA: 93% NPFF
Rat NPFF1 receptor [3]
  rNPFF1 IA: 31% NPFF

## Cc1nc(NC(=N)N)nc2ccc(CCCC(C)O)cc12 (stereo not shown) [Compound 1034A, N-(6-[1-(4-hydroxyl-pentyl)]-4-methyl-2-quinazolino)guanidine]
Rat NPFF2 receptor [2]
  rNPFF2 IA: 101% NPFF
Rat NPFF1 receptor [3]
  rNPFF1 IA: 63% NPFF

## Cc1nc(NC(=N)N)nc2cc3ccoc3cc12 [Compound 1039A, N-(4-methylfuro[2,3-g]quinazolin-2-yl)guanidine]
Rat NPFF2 receptor [2]
  rNPFF2 IA: 78% NPFF
Rat NPFF1 receptor [3]; [7]
  pEC50: < 5.00

## N=C(N)NCCC[C@H](NS(=O)(=O)c1ccccc1Br)C(=O)N[C@@H](Cc1ccccc1)C(N)=O [Compound 2001B]
Rat NPFF2 receptor [2]; Table 4
  Functional Activity rNPFF2 I.A. %: 9%
Rat NPFF1 receptor [3]; Table 4
  Functional Activity rNPFF1 I.A. %: 81%

## N=C(N)NCCC[C@H](NS(=O)(=O)c1ccc([N+](=O)[O-])cc1[N+](=O)[O-])C(=O)N[C@@H](Cc1ccccc1)C(N)=O [Compound 2002B]
Rat NPFF2 receptor [2]; Table 4
  Functional Activity rNPFF2 I.A. %: 5%
Rat NPFF1 receptor [3]; Table 4
  Functional Activity rNPFF1 I.A. %: 34%

## Cc1nc(NC(=N)N)nc2ccc(Cc3ccccc3)cc12 [Compound 2003A, N-(6-benzyl-4-methyl-2-quinazolinyl)guanidine]
Rat NPFF2 receptor [2]
  rNPFF2 IA: 89% NPFF
Rat NPFF1 receptor [3]
  rNPFF1 IA: 56% NPFF

## COc1ccc(C)cc1S(=O)(=O)N[C@@H](CCCNC(=N)N)C(=O)N[C@@H](Cc1ccccc1)C(N)=O [Compound 2003B]
Rat NPFF2 receptor [2]; Table 4
  Functional Activity rNPFF2 I.A. %: 52%
Rat NPFF2 receptor [2]; [10]
  pEC50: < 5.50
Rat NPFF2 receptor [2]
  classification as agonist or antagonist at the NPFF2 receptor: agonists
Rat NPFF1 receptor [3]; Table 4
  Functional Activity rNPFF1 I.A. %: 102%
Rat NPFF1 receptor [3]
  classification as agonist or antagonist at the NPFF1 receptor: agonists
Rat NPFF2 receptor [4]; [12]
  pKi: < 5.00

## CCCCc1ccc2nc(NC(=N)N)nc(C)c2c1 [Compound 2004A, N-(6-butyl-4-methyl-2-quinazolinyl)guanidine]
Rat NPFF2 receptor [2]
  rNPFF2 IA: 101% NPFF
Rat NPFF1 receptor [3]
  rNPFF1 IA: 40% NPFF

## CCCCCCc1ccc2nc(NC(=N)N)nc(C)c2c1 [Compound 2005A, N-(6-hexyl-4-methyl-2-quinazolinyl)guanidine]
Rat NPFF2 receptor [2]
  rNPFF2 IA: 81% NPFF
Rat NPFF1 receptor [3]
  rNPFF1 IA: 56% NPFF

## CCCCCCCc1ccc2nc(NC(=N)N)nc(C)c2c1 [Compound 2006A, N-(6-heptyl-4-methyl-2-quinazolinyl)guanidine]
Rat NPFF2 receptor [2]
  rNPFF2 IA: 47% NPFF
Rat NPFF1 receptor [3]
  rNPFF1 IA: 38% NPFF

## N=C(N)NCCC[C@@H](NS(=O)(=O)c1cccc2ccccc12)C(=O)N[C@@H](Cc1ccccc1)C(N)=O [Compound 3001B]
Rat NPFF1 receptor [1]; [13]
  pKi: 7.34
Rat NPFF2 receptor [2]; Table 5
  Functional Activity rNPFF2 I.A. %: 79%
Rat NPFF2 receptor [2]; [14]
  pEC50: 6.42
Rat NPFF2 receptor [2]
  classification as agonist or antagonist at the NPFF2 receptor: agonist
Rat NPFF1 receptor [3]; Table 5
  Functional Activity rNPFF1 I.A. %: 1%
Rat NPFF1 receptor [3]; [15]
  pEC50: < 5.00
Rat NPFF1 receptor [3]
  classification as agonist or antagonist at the NPFF1 receptor: antagonist
Rat NPFF2 receptor [4]; [16]
  pKi: 5.54

## CCCCc1ccc2nc(NC(=N)N)cc(C)c2c1 [Compound 5001A, N-(6-butyl-4-methyl-2-quinolinyl)guanidine]
Rat NPFF2 receptor [2]
  rNPFF2 IA: 82% NPFF
Rat NPFF1 receptor [3]
  rNPFF1 IA: 28% NPFF

## N1-[(1R)-2-Amino-1-benzyl-2-oxoethyl]-(2S)-{[amino(imino)methyl]amino}-2-[2, 6-difluorophenyl)sulfonyl]amino]pentanamide [Compound 1032B]
Rat NPFF1 receptor [1]; [13]
  pKi: 5.89
Rat NPFF2 receptor [2]; Table 5
  Functional Activity rNPFF2 I.A. %: 61%
Rat NPFF2 receptor [2]; [14]
  pEC50: 5.56
Rat NPFF1 receptor [3]; Table 5
  Functional Activity rNPFF1 I.A. %: 47%
Rat NPFF1 receptor [3]; [15]
  pEC50: 6.19
Rat NPFF2 receptor [4]; [16]
  pKi: < 5.00

## N1-[(1R)-2-Amino-1-benzyl-2-oxoethyl]-(2S)-{[amino(imino)methyl]amino}-2-[2-bromophenyl) sulfonyl]amino}pentanamide [Compound 1031B]
Rat NPFF1 receptor [1]; [13]
  pKi: 5.59
Rat NPFF2 receptor [2]; Table 5
  Functional Activity rNPFF2 I.A. %: 24%
Rat NPFF2 receptor [2]; [14]
  pEC50: 5.80
Rat NPFF1 receptor [3]; Table 5
  Functional Activity rNPFF1 I.A. %: 32%
Rat NPFF1 receptor [3]; [15]
  pEC50: 6.07
Rat NPFF2 receptor [4]; [16]
  pKi: 5.22

## N1-[(1S)-2-Amino-1-benzyl-2-oxoethyl]-(2R)-{[amino(imino)methyl]amino}-2-2-bromophenyl) sulfonyl]amino}pentanamide [Compound 1030B]
Rat NPFF1 receptor [1]; [13]
  pKi: 6.60
Rat NPFF2 receptor [2]; Table 5
  Functional Activity rNPFF2 I.A. %: 71%
Rat NPFF2 receptor [2]; [14]
  pEC50: 5.78
Rat NPFF1 receptor [3]; Table 5
  Functional Activity rNPFF1 I.A. %: 35%
Rat NPFF1 receptor [3]; [15]
  pEC50: 6.18
Rat NPFF2 receptor [4]; [16]
  pKi: 5.21

## N1-[(1S)-2-Amino-1-benzyl-2-oxoethyl]-(2S)-{[amino(imino)methyl]amino}-2-[pentafluorophenyl)sulfonyl]amino}pentanamide [Compound 1024B]
Rat NPFF1 receptor [1]; [9]
  pKi: 6.31
Rat NPFF2 receptor [2]; Table 4
  Functional Activity rNPFF2 I.A. %: 43%
Rat NPFF2 receptor [2]; [10]
  pEC50: < 5.50
Rat NPFF1 receptor [3]; Table 4
  Functional Activity rNPFF1 I.A. %: 69%
Rat NPFF1 receptor [3]; [11]
  pEC50: 6.14
Rat NPFF2 receptor [4]; [12]
  pKi: 5.27
